Test results: ChEMBL document CHEMBL4257559, “Protective effects of astragaloside IV against hypoxic pulmonary hypertension” (Medchemcomm, 2018)
Calls of active or inactive are those of the source. The calls are words filed in the database; no cut-off is given here.

Assays:
Rattus norvegicus [1] = test: Protective effect against chronic hypoxia-induced pulmonary hypertension in ip dosed Sprague-Dawley rat assessed as decrease in serum IL-6 levels administered every other day at 10 mins prior to induction of hypoxia and measured after 2 weeks by ELISA; format: functional, organism-based
Rattus norvegicus [2] = test: Protective effect against chronic hypoxia-induced pulmonary hypertension in ip dosed Sprague-Dawley rat assessed as decrease in serum TNF-alpha levels administered every other day at 10 mins prior to induction of hypoxia and measured after 2 weeks by ELISA; format: functional, organism-based
Pulmonary artery [3] = test: Protective effect against chronic hypoxia-induced pulmonary hypertension in Sprague-Dawley rat pulmonary arterial ring assessed as increase in relaxation of pulmonary artery ring at 10 uM treated after phenylephrine-induced vasoconstriction measured at 10 mins relative to control; format: functional; parameters: scale not given: the % may be the effect or the level left
[4] = Cmax in chronic hypoxia-induced pulmonary hypertension model of Sprague-Dawley rat at 10 mg/kg, ip after 30 to 600 mins by HPLC analysis; format: ADME, organism-based; parameters: dose 10 mg/kg, route intraperitoneal; conditions: in vivo
[5] = Tmax in chronic hypoxia-induced pulmonary hypertension model of Sprague-Dawley rat at 10 mg/kg, ip after 30 to 600 mins by HPLC analysis; format: ADME, organism-based; conditions: in vivo
Rattus norvegicus [6] = test: Protective effect against chronic hypoxia-induced pulmonary hypertension in Sprague-Dawley rat assessed as decrease in serum endothelin levels at 10 mg/kg, ip administered every other day at 10 mins prior to induction of hypoxia and measured after 2 weeks by ELISA; format: functional, organism-based
Rattus norvegicus [7] = test: Protective effect against chronic hypoxia-induced pulmonary hypertension in Sprague-Dawley rat assessed as decrease in right ventricular pressure at 50 mg/kg, ip administered every other day at 10 mins prior to induction of hypoxia and measured after 2 weeks; format: functional, organism-based
Rattus norvegicus [8] = test: (§1) Protective effect against chronic hypoxia-induced pulmonary hypertension in Sprague-Dawley rat assessed as decrease in index of right ventricular hypertrophy by measuring ratio of right ventricular/(left ventricular + septum) weight at 10 mg/kg, ip administered every other day at 10 mins prior to induction of hypoxia and measured after 2 weeks; format: functional, organism-based
Pulmonary artery [9] = test: Protective effect against chronic hypoxia-induced pulmonary hypertension in Sprague-Dawley rat pulmonary arterial ring assessed as increase in relaxation of pulmonary artery ring at 50 uM treated after phenylephrine-induced vasoconstriction measured at 1 min; format: functional, tissue-based
Rattus norvegicus [10] = test: as §1, with “weight at 50 mg/kg, ip” for “weight at 10 mg/kg, ip”; format: functional, organism-based
Rattus norvegicus [11] = species on record: Rattus norvegicus; test: Inhibition of hypoxia-induced proliferation of Sprague-Dawley rat PASMC at 10 uM preincubated for 10 mins followed by hypoxia induction and measured after 24 hrs by CCK8 assay; format: functional
Rattus norvegicus [12] = test: Protective effect against chronic hypoxia-induced pulmonary hypertension in Sprague-Dawley rat assessed as decrease in serum endothelin levels at 50 mg/kg, ip administered every other day at 10 mins prior to induction of hypoxia and measured after 2 weeks by ELISA; format: functional, organism-based
Rattus norvegicus [13] = species on record: Rattus norvegicus; test: Inhibition of hypoxia-induced proliferation of Sprague-Dawley rat PASMC at 50 uM preincubated for 10 mins followed by hypoxia induction and measured after 24 hrs by CCK8 assay; format: functional
Rattus norvegicus [14] = test: Protective effect against chronic hypoxia-induced pulmonary hypertension in Sprague-Dawley rat assessed as decrease in serum angiotensin-2 levels at 50 mg/kg, ip administered every other day at 10 mins prior to induction of hypoxia and measured after 2 weeks by ELISA; format: functional, organism-based
Rattus norvegicus [15] = test: Protective effect against chronic hypoxia-induced pulmonary hypertension in Sprague-Dawley rat assessed as decrease in right ventricular pressure at 10 mg/kg, ip administered every other day at 10 mins prior to induction of hypoxia and measured after 2 weeks; format: functional, organism-based
[16] = Cmax in chronic hypoxia-induced pulmonary hypertension model of Sprague-Dawley rat at 50 mg/kg, ip after 30 to 600 mins by HPLC analysis; format: ADME, organism-based; parameters: dose 50 mg/kg, route intraperitoneal; conditions: in vivo
Rattus norvegicus [17] = test: Protective effect against chronic hypoxia-induced pulmonary hypertension in Sprague-Dawley rat assessed as decrease in mean pulmonary arterial pressure at 50 mg/kg, ip administered every other day at 10 mins prior to induction of hypoxia and measured after 2 weeks; format: functional, organism-based
Pulmonary artery [18] = test: Protective effect against chronic hypoxia-induced pulmonary hypertension in Sprague-Dawley rat pulmonary arterial ring assessed as increase in relaxation of pulmonary artery ring at 10 uM treated after phenylephrine-induced vasoconstriction measured at 1 min; format: functional, tissue-based
[19] = Tmax in chronic hypoxia-induced pulmonary hypertension model of Sprague-Dawley rat at 50 mg/kg, ip after 30 to 600 mins by HPLC analysis; format: ADME, organism-based; conditions: in vivo
Rattus norvegicus [20] = test: Protective effect against chronic hypoxia-induced pulmonary hypertension in Sprague-Dawley rat assessed as decrease in serum angiotensin-2 levels at 10 mg/kg, ip administered every other day at 10 mins prior to induction of hypoxia and measured after 2 weeks by ELISA; format: functional, organism-based
Pulmonary artery [21] = test: Protective effect against chronic hypoxia-induced pulmonary hypertension in Sprague-Dawley rat pulmonary arterial ring assessed as increase in relaxation of pulmonary artery ring at 50 uM treated after phenylephrine-induced vasoconstriction measured at 10 mins relative to control; format: functional; parameters: scale not given: the % may be the effect or the level left
Rattus norvegicus [22] = test: Protective effect against chronic hypoxia-induced pulmonary hypertension in Sprague-Dawley rat assessed as decrease in mean pulmonary arterial pressure at 10 mg/kg, ip administered every other day at 10 mins prior to induction of hypoxia and measured after 2 weeks; format: functional, organism-based

CC(C)(O)[C@@H]1CC[C@](C)([C@H]2[C@@H](O)C[C@@]3(C)[C@@H]4C[C@H](O[C@@H]5O[C@H](CO)[C@@H](O)[C@H](O)[C@H]5O)[C@H]5C(C)(C)[C@@H](O[C@@H]6OC[C@@H](O)[C@H](O)[C@H]6O)CC[C@@]56C[C@@]46CC[C@]23C)O1
Activity (Rattus norvegicus [1]): Dose-dependent effect | Activity (Rattus norvegicus [2]): Dose-dependent effect | Activity (Pulmonary artery [3]): 9.42% | Cmax [4]: 7270 ng/mL | Tmax [5]: 1 h | Activity (Rattus norvegicus [6]): inactive | Activity (Rattus norvegicus [7]): inactive | Activity (Rattus norvegicus [8]): inactive | Activity (Pulmonary artery [9]): Active | Activity (Rattus norvegicus [10]): inactive | inhibition (Rattus norvegicus [11]): inactive | Activity (Rattus norvegicus [12]): Active | inhibition (Rattus norvegicus [13]): Active | Activity (Rattus norvegicus [14]): Active | Activity (Rattus norvegicus [15]): inactive | Cmax [16]: 25200 ng/mL | Activity (Rattus norvegicus [17]): inactive | Activity (Pulmonary artery [18]): Active | Tmax [19]: 1 h | Activity (Rattus norvegicus [20]): inactive | Activity (Pulmonary artery [21]): 21.194% | Activity (Rattus norvegicus [22]): inactive
